Here are results for 6 compounds from ChEMBL document CHEMBL1133852, “Stereoselective synthesis of 7 alpha- and 7 beta-aminocholestanol as potent fungicidal drugs” (2001).

What is called MIC is the lowest concentration found to suppress growth.

Holding throughout (format): functional
Assay [1] deals with Candida tropicalis. Kind of assay: Tested for antifungal activity against 5-FC resistant strain Candida tropicalis CIP 1745-88 after 48 hr incubation.
The test system of assay [2] is Candida albicans. Description: Tested for antifungal activity against Candida albicans CIP 1180-79 after 48 h incubation.
The subject of assay [3] is Candida albicans. Kind of assay: Tested for antifungal activity against azole resistant strain Candida albicans CIP 1760-88 after 48 hr incubation.
The next assay concerns Saccharomyces cerevisiae. Kind of assay: Tested for antifungal activity against Saccharomyces cerevisiae ATCC 28 383 after 48 hr incubation. The conditions noted are these: ATCC 28, 48 h.
The test system of assay [4] is Candida tropicalis. Description: Tested for antifungal activity against amp B resistant strain Candida tropicalis CIP 1275-81 after 48 hr incubation.

Values after ≈ are worked out from the molar mass of the structure shown.

Regarding `CC(C)CCC[C@@H](C)C1CC[C@H]2[C@@H]3[C@@H](N)CC4C[C@@H](O)CC[C@]4(C)[C@H]3CC[C@]12C` (some centres undefined), the MIC came to 3.1 µg/mL (≈ 7.68 µM) with Candida tropicalis [1]; 1.5 µg/mL (≈ 3.72 µM) with Candida albicans [2]; 1.5 µg/mL (≈ 3.72 µM) with Candida albicans [3]; 0.4 µg/mL (≈ 0.991 µM) against Saccharomyces cerevisiae; 1.5 µg/mL (≈ 3.72 µM) in the assay on Candida tropicalis [4].

With `Nc1nc(=O)[nH]cc1F` [FLUCYTOSINE], the figures for the MIC against Candida tropicalis [1], with Candida albicans [2] and in the assay with Saccharomyces cerevisiae were over 100 µg/mL, 50 µg/mL (≈ 387 µM) and 6.2 µg/mL (≈ 48 µM), respectively.

For the compound `c1ccc(-c2ccc(C(c3ccccc3)n3ccnc3)cc2)cc1` (centres undefined) [BIFONAZOLE], the values for the minimum inhibitory concentration (MIC) with Candida albicans [2], with Candida albicans [3] and against Saccharomyces cerevisiae were 12.5 µg/mL (≈ 40.3 µM), 50 µg/mL (≈ 161 µM) and 6.2 µg/mL (≈ 20 µM), respectively.

Turning to `CC(C)CCCC(C)[C@H]1CC[C@H]2C3C(N)C=C4C[C@@H](O)CCC4(C)[C@H]3CCC12C` (some centres undefined), the MIC is 3.1 µg/mL (≈ 7.72 µM) against Candida tropicalis [1]; 2.6 µg/mL (≈ 6.47 µM) against Candida albicans [2]; 2.3 µg/mL (≈ 5.73 µM) against Candida albicans [3]; 2.4 µg/mL (≈ 5.97 µM) in the assay with Saccharomyces cerevisiae; 1.5 µg/mL (≈ 3.73 µM) against Candida tropicalis [4].

Regarding `C[C@@H]1[C@H](O)[C@@H](C)/C=C/C=C/C=C/C=C/C=C/C=C/C=C/[C@H](O[C@@H]2O[C@H](C)[C@@H](O)[C@H](N)[C@@H]2O)C[C@@H]2O[C@](O)(C[C@@H](O)C[C@@H](O)[C@H](O)CC[C@@H](O)C[C@@H](O)CC(=O)O[C@H]1C)C[C@H](O)[C@H]2C(=O)O` [AMPHOTERICIN B], the results for the MIC against Candida albicans [2], against Saccharomyces cerevisiae and in the assay on Candida tropicalis [4] were 0.4 µg/mL (≈ 0.433 µM), 0.3 µg/mL (≈ 0.325 µM) and 12.5 µg/mL (≈ 13.5 µM), respectively.

Turning to `CC(C)CCC[C@@H](C)C1CC[C@H]2[C@@H]3[C@H](N)CC4C[C@@H](O)CC[C@]4(C)[C@H]3CC[C@]12C` (some centres undefined), the MIC in the assay with Candida tropicalis [1] stood at 3.1 µg/mL (≈ 7.68 µM); against Candida albicans [2] it was 6.2 µg/mL (≈ 15.4 µM); with Candida albicans [3], 3.1 µg/mL (≈ 7.68 µM); in the assay with Saccharomyces cerevisiae, 3.1 µg/mL (≈ 7.68 µM); with Candida tropicalis [4], 1.5 µg/mL (≈ 3.72 µM).
